Data reported in patent US5430062A, “Stilbene derivatives as anticancer agents” (priority 1993, dated 1995).

Assays:
SF-539 CNS cancer = assay: Cytotoxicity, SF-539; format: cell-based; conditions: Homo sapiens, read-out: Log10 GI50, SF-539 (converted)
Excerpt: (§1) A total of 55 cell lines from the leukemia, non-small cell lung cancer, small cell lung cancer, colon cancer, CNS cancer, melanoma, ovarian cancer, and renal cancer panels were examined.

HCT-116 colon cancer = assay: Cytotoxicity, HCT-116; format: cell-based; conditions: Homo sapiens, read-out: Log10 GI50, HCT-116 (converted)
Excerpt: as §1

HCT-15 colon cancer = assay: Cytotoxicity, HCT-15; format: cell-based; conditions: Homo sapiens, read-out: Log10 GI50, HCT-15 (converted)
Excerpt: as §1

M19-MEL melanoma = assay: Cytotoxicity, M19-MEL; format: cell-based; conditions: Homo sapiens, read-out: Log10 GI50, M19-MEL (converted)
Excerpt: as §1

[1] = system: A549/ATCC non-small cell lung cancer; assay: Cytotoxicity, A549/ATCC; format: cell-based; conditions: Homo sapiens, read-out: Log10 GI50, A549/ATCC (converted)
Excerpt: as §1

MALME-3M melanoma = assay: Cytotoxicity, MALME-3M; format: cell-based; conditions: Homo sapiens, read-out: Log10 GI50, MALME-3M (converted)
Excerpt: as §1

IGROVI ovarian cancer = assay: Cytotoxicity, IGROVI; format: cell-based; conditions: read-out: Log10 GI50, IGROVI (converted)
Excerpt: as §1

LOX IMVI melanoma = assay: Cytotoxicity, LOX IMVI; format: cell-based; conditions: Homo sapiens, read-out: Log10 GI50, LOX IMVI (converted)
Excerpt: as §1

SK-MEL-5 melanoma = assay: Cytotoxicity, SK-MEL-5 (Table XI panel); format: cell-based; conditions: Homo sapiens, read-out: Log10 GI50, SK-MEL-5 (converted)
Excerpt: as §1

RPMI-8226 leukemia = assay: Cytotoxicity, RPMI-8226; format: cell-based; conditions: Homo sapiens, read-out: Log10 GI50, RPMI-8226 (converted)
Excerpt: as §1

SK-OV-3 ovarian cancer = assay: Cytotoxicity, SK-OV-3; format: cell-based; conditions: Homo sapiens, read-out: Log10 GI50, SK-OV-3 (converted)
Excerpt: as §1

RXF-393 renal cancer = assay: Cytotoxicity, RXF-393; format: cell-based; conditions: Homo sapiens, read-out: Log10 GI50, RXF-393 (converted)
Excerpt: as §1

DLD-1 colon cancer = assay: Cytotoxicity, DLD-1; format: cell-based; conditions: Homo sapiens, read-out: Log10 GI50, DLD-1 (converted)
Excerpt: as §1

[2] = system: NCI-H322M non-small cell lung cancer; assay: Cytotoxicity, NCI-H322M; format: cell-based; conditions: Homo sapiens, read-out: Log10 GI50, NCI-H322M (converted)
Excerpt: as §1

[3] = system: NCI-H460 non-small cell lung cancer; assay: Cytotoxicity, NCI-H460; format: cell-based; conditions: Homo sapiens, read-out: Log10 GI50, NCI-H460 (converted)
Excerpt: as §1

UACC-62 melanoma = assay: Cytotoxicity, UACC-62; format: cell-based; conditions: Homo sapiens, read-out: Log10 GI50, UACC-62 (converted)
Excerpt: as §1

MOLT-4 leukemia = assay: Cytotoxicity, MOLT-4; format: cell-based; conditions: Homo sapiens, read-out: Log10 GI50, MOLT-4 (converted)
Excerpt: as §1

[4] = system: LXFL 529 non-small cell lung cancer; assay: Cytotoxicity, LXFL 529; format: cell-based; conditions: Homo sapiens, read-out: Log10 GI50, LXFL 529 (converted)
Excerpt: as §1

[5] = system: EKCK non-small cell lung cancer; assay: Cytotoxicity, EKCK; format: cell-based; conditions: read-out: Log10 GI50, EKCK (converted)
Excerpt: as §1

[6] = system: DMS114 small cell lung cancer; assay: Cytotoxicity, DMS114; format: cell-based; conditions: Homo sapiens, DMS-114; read-out: Log10 GI50, DMS114 (converted)
Excerpt: as §1

U251 CNS cancer = assay: Cytotoxicity, U251; format: cell-based; conditions: Homo sapiens, U-251; read-out: Log10 GI50, U251 (converted)
Excerpt: as §1

M14 melanoma = assay: Cytotoxicity, M14; conditions: read-out: cytotoxicity GI50, M14, 50% growth inhibition, average of two determinations, 8640 min, Hydrochloride
786-0 renal cancer = assay: Cytotoxicity, 786-0; format: cell-based; conditions: Homo sapiens, read-out: Log10 GI50, 786-0 (converted)
Excerpt: as §1

SMILES: COc1cc(CNc2ccc(C)cc2)cc(OC)c1OC.Cl [110a, 4-Methyl-N-(3,4,5-trimethoxybenzyl)aniline Hydrochloride]
- GI50 (SF-539 CNS cancer): 316 nM
- GI50 (HCT-116 colon cancer): 575 nM
- GI50 (HCT-15 colon cancer): 245 nM
- GI50 (M19-MEL melanoma): 331 nM
- GI50 [1]: 513 nM
- GI50 (MALME-3M melanoma): 468 nM
- GI50 (IGROVI ovarian cancer): 708 nM
- GI50 (LOX IMVI melanoma): 851 nM
- GI50 (SK-MEL-5 melanoma): 912 nM
- GI50 (RPMI-8226 leukemia): 437 nM
- GI50 (SK-OV-3 ovarian cancer): 269 nM
- GI50 (RXF-393 renal cancer): 112 nM
- GI50 (DLD-1 colon cancer): 575 nM
- GI50 [2]: 501 nM
- GI50 [3]: 214 nM
- GI50 (UACC-62 melanoma): 575 nM
- GI50 (MOLT-4 leukemia): 427 nM
- GI50 [4]: 631 nM
- GI50 [5]: 741 nM
- GI50 [6]: 427 nM
- GI50 (U251 CNS cancer): 331 nM
- GI50 (M14 melanoma): 292 nM
- GI50 (786-0 renal cancer): 324 nM
